{"source": "patent US20060062758A1", "about": "“Tight junction modulator peptide PN159 for enhanced mucosal delivery of therapeutic compounds” (Nastech Pharmaceutical Comapny Inc., priority 2004, published 2006)", "key": {"[1]": {"test_system": "EpiAirway™ Cell Membrane (mucosal epithelial cell layer)", "assay": "Transepithelial electrical resistance (TER), EpiAirway in vitro epithelial tissue model", "assay_type": "cell-based", "details": "for TER(x)/TER(159) +/− SEM*: mean values from multiple repeats", "description": "One “kit” consists of 24 units.\nA. Respiratory airway epithelial cells form tight junctions in vivo as well as in vitro, and thereby restrict the flow of solutes across the tissue. These junctions confer a transepithelial resistance of several hundred ohms×cm^2 in excised airway tissues. In the MatTek EpiAirway™ units, the transepithelial electrical resistance (TER) is reported by the manufacturer to be routinely around 1000 ohms×cm^2. […] The porous membrane-bottomed units without cells, conversely, provide only minimal transmembrane resistance (approximately 5-20 ohms×cm^2).\nB. Accurate determinations of TER require that the electrodes of the ohmmeter be positioned over a significant surface area above and below the membrane, and that the distance of the electrodes from the membrane be reproducibly controlled. The method for TER determination recommended by MatTek and employed for all experiments herein employs an “EVOM”™ epithelial voltohmmeter and an “ENDOHM”™ tissue resistance measurement chamber from World Precision Instruments, Inc., Sarasota, Fla.\nD. Determinations of TER are made with 1.5 mL of PBS in the chamber and 350 μL of PBS in the membrane-bottomed unit being measured. The top electrode is adjusted to a position just above the membrane of a unit containing no cells (but containing 350 μL of PBS) and then fixed to ensure reproducible positioning. The resistance of a cell-free unit is typically 5-20 ohms×cm^2 (“background resistance”).\nG. The unit is gently blotted free of excess PBS on its exterior surface only before being placed into the chamber (containing a fresh 1.5 mL aliquot of PBS). An aliquot of 350 μL PBS is added to the unit before the top electrode is placed on the chamber and the TER is read on the EVOM meter.\nI. The units are read in the following sequence: all sham-treated controls, followed by all formulation-treated samples, followed by a second TER reading of each of the sham-treated controls. All TER values are reported as a function of the surface area of the tissue.\nTER was calculated as: TER=(R1−Rb)×A Where R1 is resistance of the insert with a membrane, Rb is the resistance of the blank insert, and A is the area of the membrane (0.6 cm^2). The effect of pharmaceutical formulations comprising intranasal delivery-enhancing agents, for example, permeabilizing peptides as measured by TER across the EpiAirway™ Cell Membrane (mucosal epithelial cell layer). Permeabilizing peptides are applied to the EpiAirway™ Cell Membrane at a concentration of 1.0 mM. A decrease in TER value relative to the control value (control=approximately 1000 ohms-cm^2; normalized to 100.) indicates a decrease in cell membrane resistance and an increase in mucosal epithelial cell permeability.\n(§1) The formulation pH was fixed at 4.5."}, "[2]": {"assay": "Intranasal PYY plasma pharmacokinetics in rabbits", "assay_type": "in vivo, New Zealand White rabbits", "details": "for plasma concentration of PYY: average of 4 animals; for Relative AUC last / Relative Cmax / AUCINF, Mean / AUClast, Mean: plasma PYY; for Relative AUC last / Relative Cmax: compared with Group 2 (no enhancer) formulation", "procedure": "20 male New Zealand White rabbits age 3-6 months and weighing 2.1-3.0 kg were randomly assigned into one of 5 treatment groups with four animals per group. Test animals were dosed at 15 μl/kg and intranasally via pipette. Table 4 below indicates the composition of five different dose groups.\nFor dosing group 1 (see Table 1) a clinical formulation of PYY including small molecule permeation enhancers was used. The small molecule enhancers in these studies included methyl-βcyclodextrin, phosphatidylcholine didecanoyl (DDPC), and/or EDTA. Dosing group 2 received PYY dissolved in phosphate buffered saline (PBS).\nSerial blood samples (about 2 ml each) were collected by direct venipuncture from a marginal ear vein into blood collection tubes containing EDTA as an anticoagulant. Blood samples were collected at 0, 2.5, 5, 10, 15, 30, 45, 60, and 120 minutes post-dosing. After collection of the blood, the tubes were gently rocked several times for anti-coagulation, and then 50 μl aprotinin solution was added. The blood was centrifuged at approximately 1,600×g for 15 minutes at approximately 4° C., and plasma samples were dispensed into duplicate aliquots and stored frozen at approximately −70° C."}, "[3]": {"test_system": "EpiAirway™ Cell Membrane (mucosal epithelial cell layer)", "assay": "LDH assay (cytotoxicity), in vitro epithelial tissue model", "assay_type": "cell-based", "procedure": "Repeated freeze-thaw cycles are to be avoided.\nThe amount of cell death was assayed by measuring the loss of lactate dehydrogenase (LDH) from the cells using a CytoTox 96 Cytoxicity Assay Kit (Promega Corp., Madison, Wis.). Fifty microliters of sample was loaded into a 96-well assay plates. Fresh, cell-free culture medium was used as a blank. 50 μl of substrate solution was added to each well and the plates incubated for 30 minutes at room temperature in the dark. Following incubation, 50 μl of stop solution was added to each well and the plates read on an optical density plate reader at 490 nm.\nas §1"}, "[4]": {"test_system": "EpiAirway™ Cell Membrane (mucosal epithelial cell layer)", "assay": "Transepithelial electrical resistance (TER), EpiAirway in vitro epithelial tissue model", "assay_type": "cell-based"}, "[5]": {"details": "intranasal PYY 205 μg/kg in PBS with 25 μM PN159 (Group 3)"}, "[6]": {"details": "intranasal PYY 205 μg/kg in PBS with 50 μM PN159 (Group 4)"}, "[7]": {"details": "intranasal PYY 205 μg/kg in PBS with 100 μM PN159 (Group 5)"}}, "data": [{"smiles": "CC(C)C[C@H](NC(=O)[C@H](C)NC(=O)[C@H](CCCCN)NC(=O)[C@H](CC(C)C)NC(=O)[C@H](C)NC(=O)[C@H](CC(C)C)NC(=O)[C@H](CCCCN)NC(=O)[C@H](CC(C)C)NC(=O)[C@H](C)NC(=O)[C@H](CC(C)C)NC(=O)[C@@H](N)CCCCN)C(=O)N[C@@H](CCCCN)C(=O)N[C@@H](C)C(=O)N[C@@H](C)C(=O)N[C@@H](CC(C)C)C(=O)N[C@@H](CCCCN)C(=O)N[C@@H](CC(C)C)C(=O)N[C@@H](C)C(N)=O", "note": "[PN159]", "values": [{"measurement": "TER reduction (in words)", "setting": "[1]; Example 2, PTH formulation study, applied to apical side", "value": "Higher TER reduction was observed with increasing PN159 concentration"}, {"measurement": "TER(x)/TER(159) +/− SEM*", "setting": "[1]; Example 7, length changes, relative to PN159", "value": "1.00 +/− 0.14"}, {"measurement": "TER(x)/TER(159) +/− SEM", "setting": "[1]; Table 6, D-amino acid substitutions, relative to PN159", "value": "1.00 +/− 0.14"}, {"measurement": "Relative TER Decrease", "setting": "[1]; Table 8, amino acid substitutions, relative to PN159", "value": 1.0}, {"measurement": "TER(x)/TER(159) +/− SEM*", "setting": "[1]; Table 9, hydrophobic faces, relative to PN159", "value": "1.00 +/− 0.14"}, {"measurement": "plasma concentration of PYY", "setting": "[2]; 0 min post-dosing, intranasal PYY 205 μg/kg in PBS with 25 μM PN159", "value": 228.675}, {"measurement": "plasma concentration of PYY", "setting": "[2]; 0 min post-dosing, intranasal PYY 205 μg/kg in PBS with 50 μM PN159", "value": 424.4}, {"measurement": "plasma concentration of PYY", "setting": "[2]; 0 min post-dosing, intranasal PYY 205 μg/kg in PBS with 100 μM PN159", "value": 294.225}, {"measurement": "plasma concentration of PYY", "setting": "[2]; 2.5 min post-dosing, intranasal PYY 205 μg/kg in PBS with 25 μM PN159", "value": 526.375}, {"measurement": "plasma concentration of PYY", "setting": "[2]; 2.5 min post-dosing, intranasal PYY 205 μg/kg in PBS with 50 μM PN159", "value": 749.975}, {"measurement": "plasma concentration of PYY", "setting": "[2]; 2.5 min post-dosing, intranasal PYY 205 μg/kg in PBS with 100 μM PN159", "value": 1748.225}, {"measurement": "plasma concentration of PYY", "setting": "[2]; 5 min post-dosing, intranasal PYY 205 μg/kg in PBS with 25 μM PN159", "value": 1430.15}, {"measurement": "plasma concentration of PYY", "setting": "[2]; 5 min post-dosing, intranasal PYY 205 μg/kg in PBS with 50 μM PN159", "value": 1293.4}, {"measurement": "plasma concentration of PYY", "setting": "[2]; 5 min post-dosing, intranasal PYY 205 μg/kg in PBS with 100 μM PN159", "value": 3088.2}, {"measurement": "plasma concentration of PYY", "setting": "[2]; 10 min post-dosing, intranasal PYY 205 μg/kg in PBS with 25 μM PN159", "value": 6521.7}, {"measurement": "plasma concentration of PYY", "setting": "[2]; 10 min post-dosing, intranasal PYY 205 μg/kg in PBS with 50 μM PN159", "value": 12517.2}, {"measurement": "plasma concentration of PYY", "setting": "[2]; 10 min post-dosing, intranasal PYY 205 μg/kg in PBS with 100 μM PN159", "value": 14486.6}, {"measurement": "plasma concentration of PYY", "setting": "[2]; 15 min post-dosing, intranasal PYY 205 μg/kg in PBS with 25 μM PN159", "value": 12563.075}, {"measurement": "plasma concentration of PYY", "setting": "[2]; 15 min post-dosing, intranasal PYY 205 μg/kg in PBS with 50 μM PN159", "value": 34455.3}, {"measurement": "plasma concentration of PYY", "setting": "[2]; 15 min post-dosing, intranasal PYY 205 μg/kg in PBS with 100 μM PN159", "value": 20882.725}, {"measurement": "plasma concentration of PYY", "setting": "[2]; 30 min post-dosing, intranasal PYY 205 μg/kg in PBS with 25 μM PN159", "value": 15222.6}, {"measurement": "plasma concentration of PYY", "setting": "[2]; 30 min post-dosing, intranasal PYY 205 μg/kg in PBS with 50 μM PN159", "value": 35294.375}, {"measurement": "plasma concentration of PYY", "setting": "[2]; 30 min post-dosing, intranasal PYY 205 μg/kg in PBS with 100 μM PN159", "value": 25470.475}, {"measurement": "plasma concentration of PYY", "setting": "[2]; 45 min post-dosing, intranasal PYY 205 μg/kg in PBS with 25 μM PN159", "value": 9081.125}, {"measurement": "plasma concentration of PYY", "setting": "[2]; 45 min post-dosing, intranasal PYY 205 μg/kg in PBS with 50 μM PN159", "value": 21582.225}, {"measurement": "plasma concentration of PYY", "setting": "[2]; 45 min post-dosing, intranasal PYY 205 μg/kg in PBS with 100 μM PN159", "value": 16499.55}, {"measurement": "plasma concentration of PYY", "setting": "[2]; 60 min post-dosing, intranasal PYY 205 μg/kg in PBS with 25 μM PN159", "value": 4843.15}, {"measurement": "plasma concentration of PYY", "setting": "[2]; 60 min post-dosing, intranasal PYY 205 μg/kg in PBS with 50 μM PN159", "value": 9461.925}, {"measurement": "plasma concentration of PYY", "setting": "[2]; 60 min post-dosing, intranasal PYY 205 μg/kg in PBS with 100 μM PN159", "value": 10676.625}, {"measurement": "plasma concentration of PYY", "setting": "[2]; 120 min post-dosing, intranasal PYY 205 μg/kg in PBS with 25 μM PN159", "value": 1224.2}, {"measurement": "plasma concentration of PYY", "setting": "[2]; 120 min post-dosing, intranasal PYY 205 μg/kg in PBS with 50 μM PN159", "value": 2337.775}, {"measurement": "plasma concentration of PYY", "setting": "[2]; 120 min post-dosing, intranasal PYY 205 μg/kg in PBS with 100 μM PN159", "value": 1891.275}, {"measurement": "Relative AUC last", "setting": "[2]; PN159, 25 μm (Group 3)", "value": 21, "unit": "x"}, {"measurement": "Relative Cmax", "setting": "[2]; PN159, 25 μm (Group 3)", "value": 30, "unit": "x"}, {"measurement": "Relative AUC last", "setting": "[2]; PN159, 50 μm (Group 4)", "value": 46, "unit": "x"}, {"measurement": "Relative Cmax", "setting": "[2]; PN159, 50 μm (Group 4)", "value": 79, "unit": "x"}, {"measurement": "Relative AUC last", "setting": "[2]; PN159, 100 μm (Group 5)", "value": 38, "unit": "x"}, {"measurement": "Relative Cmax", "setting": "[2]; PN159, 100 μm (Group 5)", "value": 54, "unit": "x"}, {"measurement": "AUCINF, Mean", "setting": "[2]; [5]", "value": 796354.7, "unit": "pg·min/mL"}, {"measurement": "AUClast, Mean", "setting": "[2]; [5]", "value": 748104.1, "unit": "pg·min/mL"}, {"measurement": "AUCINF, Mean", "setting": "[2]; [6]", "value": 1787348, "unit": "pg·min/mL"}, {"measurement": "AUClast, Mean", "setting": "[2]; [6]", "value": 1692499, "unit": "pg·min/mL"}, {"measurement": "AUCINF, Mean", "setting": "[2]; [7]", "value": 1518949, "unit": "pg·min/mL"}, {"measurement": "AUClast, Mean", "setting": "[2]; [7]", "value": 1384241, "unit": "pg·min/mL"}, {"measurement": "cytotoxicity (LDH)", "setting": "[3]; Example 2, PTH study, PN159 25-100 μM", "value": "no significant cytotoxicity"}, {"measurement": "cytotoxicity as measured by LDH", "setting": "[3]; in the presence of PN159 and galantamine lactate", "value": "low"}, {"measurement": "TER (in words)", "setting": "[4]; PN159 25, 50, 100 μM in the presence of 40 mg/ml galantamine lactate, pH 5.0", "value": "reduced TER"}, {"measurement": "TER reduction", "setting": "[4]; PN159 25, 50, 100 μM with 2 mg/ml PTH, pH 4.5", "value": "more than 80%"}]}]}
